Molecular target: Amyloid-beta precursor protein (Homo sapiens) (UniProt P05067)
Assay: Binding affinity to amyloid beta (1 to 40) (unknown origin) assessed as increase in fluorescence after 3 hrs by UV-spectra analysis

Sequence of Amyloid-beta precursor protein (Homo sapiens) (P05067 whole entry): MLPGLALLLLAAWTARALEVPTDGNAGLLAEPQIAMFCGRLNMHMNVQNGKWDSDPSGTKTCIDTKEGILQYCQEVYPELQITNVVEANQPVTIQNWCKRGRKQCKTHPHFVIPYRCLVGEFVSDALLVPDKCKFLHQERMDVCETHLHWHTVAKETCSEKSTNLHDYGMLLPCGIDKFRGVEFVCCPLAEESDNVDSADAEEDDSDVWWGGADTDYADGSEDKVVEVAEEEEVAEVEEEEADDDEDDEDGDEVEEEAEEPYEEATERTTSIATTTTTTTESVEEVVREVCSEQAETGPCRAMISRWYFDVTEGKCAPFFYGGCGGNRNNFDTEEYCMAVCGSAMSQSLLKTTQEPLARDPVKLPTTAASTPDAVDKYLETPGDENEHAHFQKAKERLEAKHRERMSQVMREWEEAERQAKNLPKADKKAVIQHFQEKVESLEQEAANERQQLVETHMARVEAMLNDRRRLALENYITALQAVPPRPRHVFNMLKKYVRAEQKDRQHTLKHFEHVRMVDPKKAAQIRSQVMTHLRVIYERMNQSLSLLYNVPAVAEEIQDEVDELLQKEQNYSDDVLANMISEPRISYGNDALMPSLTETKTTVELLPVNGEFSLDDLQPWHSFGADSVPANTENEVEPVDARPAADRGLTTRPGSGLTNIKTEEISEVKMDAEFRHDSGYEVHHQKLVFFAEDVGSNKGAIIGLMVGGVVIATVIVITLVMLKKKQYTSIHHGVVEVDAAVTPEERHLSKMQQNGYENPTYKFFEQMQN

Activity [%]	SMILES
3	Cc1c(O)c(=O)ccn1-c1ccc(-c2nc3ccccc3o2)cc1
50	Cc1c(O)c(=O)ccn1-c1ccc(-c2nc3ccccc3s2)cc1
